These results are taken from US4428937A, “Antibacterial agents” (Beecham Group Limited, priority 1975, dated 1984).

Bounds are passed on as bounds.

For one series, the system named is β-lactamase. The note with it: prior disclosures; cited from earlier work.
For series [1] the following is noted: prior disclosures; cited from earlier work.
Series [2] in a line: Overt toxic effects in mice, intraperitoneal. In kind it is in vivo. The conditions noted are these: intra peritoneally, 500 mg/kg.
The subject of series [3] is Staphylococcus aureus Russell. Briefly: In-vitro synergy: MIC of ampicillin in presence of sodium deoxyclavulanate. In kind it is cell-based. From the text:
(§1) The antibacterial and synergistic properties of sodium deoxyclavulanate are illustrated by the following in-vitro results: | Minimum Inhibitory Concentration | (μg/ml) of Ampicillin in Presence | of Various Concentrations of | Sodium Deoxyclavulanate (μg/ml) |Organism 0 1 5 20

The subject of the next series is Pseudomonas aeruginosa A. Description: In-vitro minimum inhibitory concentration. The series is classed as cell-based. The source says: (§2) The antibacterial and synergistic properties of sodium deoxyclavulanate are illustrated by the following in-vitro results: | Minimum Inhibitory | Concentration of Sodium | Organism Deoxyclavulanate (μg/ml)
The subject of the next series is Proteus mirabilis C 977. Briefly: In-vitro minimum inhibitory concentration. The note with it: C977. The series is classed as cell-based.
From the text: as §2

Series [4] deals with Serratia marcescens US 39. Description: In-vitro minimum inhibitory concentration. The series is classed as cell-based. The note with it: US39.
From the text: as §2

For the next series, the system named is Bacillus subtilis A. Briefly: In-vitro minimum inhibitory concentration. The series is classed as cell-based.
From the text: as §2

The subject of series [5] is Salmonella typhimurium CT10. Description: In-vitro minimum inhibitory concentration. The note with it: Salmonella enterica. The series is classed as cell-based.
From the text: as §2

Another series relates to Enterobacter cloacae N1. Briefly: In-vitro minimum inhibitory concentration. In kind it is cell-based.
From the text: as §2

Another series concerns Staph. aureus Oxford. Briefly: In-vitro minimum inhibitory concentration. The note with it: Staphylococcus aureus. In kind it is cell-based.
From the text: as §2

A further series concerns Escherichia coli 10418. Briefly: In-vitro minimum inhibitory concentration. In kind it is cell-based.
From the text: as §2

The test system of a further series is Klebsiella aerogenes A. Description: In-vitro minimum inhibitory concentration. In kind it is cell-based.
From the text: as §2

Another series deals with Staph. aureus Russell. Briefly: In-vitro minimum inhibitory concentration. In kind it is cell-based. The conditions noted are these: Staphylococcus aureus.
From the text: as §2

A further series concerns Klebsiella aerogenes E70. Description: In-vitro synergy: MIC of ampicillin in presence of sodium deoxyclavulanate. The series is classed as cell-based.
From the text: as §1

Setting [6] is: sodium deoxyclavulanate 0 μg/ml, read-out: Minimum Inhibitory Concentration of Ampicillin.
[7] abbreviates: sodium deoxyclavulanate 1 μg/ml.
Where [8] appears, read: sodium deoxyclavulanate 5 μg/ml.

For the compound `O=C(O)[C@H]1/C(=C\CO)O[C@@H]2CC(=O)N21` [Isoclavulanic acid, isoclavulanic acid], the β-lactamase inhibitory activity result in the series with β-lactamase was “β-lactamase inhibitory activity”. The anti-bacterial activity entry in series [1] was “also have anti-bacterial”.

With `O=C(O)[C@H]1/C(=C/CO)O[C@@H]2CC(=O)N21` [clavulanic acid], in the series on β-lactamase, the β-lactamase inhibitory activity result is on record as “β-lactamase inhibitory activity”. Besides, in [1], the anti-bacterial activity entry is reported as “possess anti-bacterial”.

For `C/C=C1\O[C@@H]2CC(=O)N2[C@H]1C(=O)O` [Sodium deoxyclavulanate, Sodium Deoxyclavulanate], in series [2], the overt toxic effects result is “did not appear to produce any overt toxic effects”. Moreover, the “Inhibition by sodium deoxyclavulanate alone” value in series [3] (sodium deoxyclavulanate 20 μg/ml) is given as “Inhibition produced by sodium deoxyclavulanate alone”. Besides, the MIC was determined as 1000 µg/mL with Pseudomonas aeruginosa A; 125 µg/mL in the series on Proteus mirabilis C 977; 125 µg/mL in [4]; 62.5 µg/mL in the series on Bacillus subtilis A; 125 µg/mL in series [5]; 125 µg/mL in the series on Enterobacter cloacae N1. Besides, the MIC with Staph. aureus Oxford was found to be 15.6 µg/mL; with Escherichia coli 10418 it was 62.5 µg/mL; with Klebsiella aerogenes A, 62.5 µg/mL; with Staph. aureus Russell, 31 µg/mL.

For the compound `CC1(C)S[C@@H]2[C@H](NC(=O)[C@H](N)c3ccccc3)C(=O)N2[C@H]1C(=O)O` [Ampicillin], the MIC is over 500 µg/mL in the series on Klebsiella aerogenes E70 (setting [6]) and 500 µg/mL in series [3] (setting [6]). In addition, the “Minimum Inhibitory Concentration of Ampicillin in Presence of Sodium Deoxyclavulanate” value in the series with Klebsiella aerogenes E70 (setting [7]) is 0.8 µg/mL; in the series on Klebsiella aerogenes E70 (setting [8]), 0.2 to 0.4 µg/mL; in [3] (setting [7]), 0.8 µg/mL; in series [3] (setting [8]), 0.08 µg/mL.
